Assays:
[1] = system: oxaliplatin induced-neuropathic pain model mouse; test: Analgesic action on oxaliplatin induced-neuropathic pain model mouse; type: in vivo; conditions: C57BL/6N mice, 1 week after oxaliplatin 0.3 mg/kg i.p., mean ± standard error
Protocol: Oxaliplatin was diluted with saline by the predetermined concentration, and administered intraperitoneally to mice (C57BL/6N, male, 8 weeks old) at 0.3 mg/kg. The test compound was dissolved in 10% captisol or 10% captisol containing 0.1% N-methyl-2-pyrrolidone. The compound was administered intravenously (0.1-10 mg/kg body weight) to the mice immediately before intraperitoneal administration of various anticancer drugs. The pain threshold was measured 1 week after oxaliplatin administration. The pain threshold was evaluated as a weighted value (gram) showing pseudo-escape reaction, when the footpad of the right hind limb was pressed using balance type pressurizing device (Ugo Basile). The values in the table show the mean±standard errors of the weighted values.

[2] = molecular target: T1, TLR4 (Mus musculus, UniProt Q9QUK6); test: Inhibitory effect with respect to NO production (LPS/interferon γ-stimulated RAW264.7); type: cell-based, murine; conditions: RAW264.7 cells, LPS 1.25 ng/mL and mouse interferon γ 0.2 ng/mL, nitrite ion in culture supernatant
T1 construct: endogenous in cells; host or cells: RAW264.7 (murine macrophage cell line)
T1 sequence (Q9QUK6 26-835): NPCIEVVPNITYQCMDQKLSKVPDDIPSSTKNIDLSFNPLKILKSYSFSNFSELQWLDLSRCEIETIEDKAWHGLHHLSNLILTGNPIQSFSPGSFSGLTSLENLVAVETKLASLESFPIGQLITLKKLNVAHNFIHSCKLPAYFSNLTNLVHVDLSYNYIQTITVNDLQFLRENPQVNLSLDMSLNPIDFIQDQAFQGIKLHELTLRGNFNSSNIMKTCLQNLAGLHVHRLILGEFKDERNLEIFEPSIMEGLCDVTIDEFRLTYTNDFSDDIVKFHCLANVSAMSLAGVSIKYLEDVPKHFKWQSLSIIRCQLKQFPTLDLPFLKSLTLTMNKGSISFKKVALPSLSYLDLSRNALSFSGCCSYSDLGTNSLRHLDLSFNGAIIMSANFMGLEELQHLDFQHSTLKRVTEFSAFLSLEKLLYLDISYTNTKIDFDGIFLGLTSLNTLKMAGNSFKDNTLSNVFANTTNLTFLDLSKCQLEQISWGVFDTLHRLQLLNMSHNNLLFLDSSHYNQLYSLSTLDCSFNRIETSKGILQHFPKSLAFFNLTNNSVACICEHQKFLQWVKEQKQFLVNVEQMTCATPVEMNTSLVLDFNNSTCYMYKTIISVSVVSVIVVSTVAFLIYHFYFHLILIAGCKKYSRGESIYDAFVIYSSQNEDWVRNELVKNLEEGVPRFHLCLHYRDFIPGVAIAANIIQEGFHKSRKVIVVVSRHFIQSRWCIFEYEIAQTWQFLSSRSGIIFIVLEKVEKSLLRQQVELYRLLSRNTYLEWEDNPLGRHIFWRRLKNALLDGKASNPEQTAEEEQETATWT
T1 sequence (Q9JHF9 19-160 partner): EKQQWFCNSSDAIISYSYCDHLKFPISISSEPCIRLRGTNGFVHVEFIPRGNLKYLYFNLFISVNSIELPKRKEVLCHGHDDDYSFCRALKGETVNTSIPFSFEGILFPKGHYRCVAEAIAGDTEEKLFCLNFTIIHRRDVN
Protocol: The inhibitory effect on TLR4 was determined using the inhibition rate due to the test compound with respect to NO production as a result of addition of lipopolysaccharide (LPS) using murine macrophage cell line RAW264.7. The cells were adjusted to 2×10^6 cells/mL using RPM1-1640 culture medium (phenol red free) supplemented with 10% inactivated bovine fetal serum, and were plated on 384 well plate so as to contain 6×10^4 cells/30 μL per well. Thereafter the cells were cultured at 37° C. overnight under 5% CO2/95% air. The test compound dissolved in DMSO was diluted 200 times using RPM1-1640 culture medium and adjusted so as to form a compound concentration of 500 nM. The prepared test compound 10 μL (final concentration 100 nM) was added to the cells, and LPS (Sigma) and mouse interferon γ (Wako Pure Chemicals) were added in amounts of 10 μL so as to form final concentrations of 1.25 ng/mL and 0.2 ng/mL respectively. The cells were further cultured overnight, and then the nitrite ion (stable NO metabolite) concentration in the culture supernatant was measured as an index of NO production. The nitrite ion concentration was assayed by adding 10 μL of 20 μg/mL 2,3-diamino naphthalene (DAN) dissolved in 0.2N HCl to 20 μL culture supernatant, incubating at room temperature for ten minutes, and then adding 10 μL of 0.5N NaOH, and measuring the fluorescent value at 460 nm (excitation wavelength 355 nm) using an EnVision plate reader (Perkin Elmer). The NO production inhibition rate (%) was calculated using the value without the addition of stimulating agent as control of 100% inhibition, and the value without the addition of the compound as control of 0% inhibition.

Compound | Pain threshold (weighted value showing pseudo-escape reaction) ([1]; 0.1 mg/kg i.v.) [gram] | Pain threshold (weighted value showing pseudo-escape reaction) ([1]; 0.3 mg/kg i.v.) [gram] | Pain threshold (weighted value showing pseudo-escape reaction) ([1]; 1 mg/kg i.v.) [gram] | NO production inhibitory effect at 100 nM (% inhibition) [2] [% inhibition]
CCOC(=O)C1=CC2(CC[C@H]1S(=O)(=O)[C@H]1CCc3cc(F)cc(Cl)c31)O[C@H](CO)[C@@H](CO)O2 [Compound 14, Ethyl (2R,3R,8R)-8-(((1S)-7-chloro-5-fluoro-2,3-dihydro-1H-inden-1-yl)sulfonyl)-2,3-bis(hydroxymethyl)-1,4-dioxaspiro[4.5]dec-6-ene-7-carboxylate] | 208.0 ± 33.8 | 215.0 ± 21.6 | 310.0 ± 33.8 | 107
CCOC(=O)C1=CC2(CC[C@H]1S(=O)(=O)[C@H]1CCc3cccc(Cl)c31)O[C@H](COC)[C@@H](COC)O2 [Compound 21, Ethyl (2R,3R,8R)-8-(((1S)-7-chloro-2,3-dihydro-1H-inden-1-yl)sulfonyl)-2,3-bis(methoxymethyl)-1,4-dioxaspiro[4.5]dec-6-ene-7-carboxylate] | 160.0 ± 29.7 | 265.0 ± 58.5 | 285.0 ± 19.3 | 112

Reference: patent US9828357B2, “Cyclic compounds” (Takeda Pharmaceutical Company Limited, priority 2015, dated 2017)
